In this assay the target is BTK (Homo sapiens, UniProt Q06187). The experiment in a line: biochemical.
Where [1] appears, read: read-out: BTK inhibition (%), 0.75 uM BTK, […] probe 3l, 15 min preincubation.

Where two headings read alike, the source gives them in different places.

Sequence of BTK (Q06187 402-655 limits assumed): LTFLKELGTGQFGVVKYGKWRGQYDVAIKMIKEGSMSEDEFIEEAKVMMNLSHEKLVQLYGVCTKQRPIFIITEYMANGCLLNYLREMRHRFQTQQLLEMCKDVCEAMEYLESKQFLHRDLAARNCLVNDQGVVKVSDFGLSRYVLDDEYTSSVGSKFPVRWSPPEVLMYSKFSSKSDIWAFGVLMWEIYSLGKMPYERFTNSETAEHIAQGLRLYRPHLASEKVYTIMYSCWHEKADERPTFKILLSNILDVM

In the case of `CO[C@@H]1[C@@H](O[C@@H]2O[C@H](C)[C@@H](O[C@H]3C[C@@](C)(O)[C@@H](O)[C@H](C)O3)[C@H](N(C)C)[C@H]2O)[C@@H](CC=O)C[C@@H](C)[C@@H](O[C@H]2CC[C@H](N(C)C)[C@@H](C)O2)/C=C/C=C/C[C@@H](C)OC(=O)C[C@H]1OC(C)=O` [PCM-0214867], the inhibition at 10 µM under setting [1] was determined as 14%.

On to `CC1(C)C2CCC1(C)C(O)C2` (stereo not shown) [PCM-0214868], for which the inhibition at 10 µM under setting [1] was determined as 1.6%.

As to `COc1ccc2cc1Oc1ccc(cc1)C[C@H]1c3cc(c(OC)cc3CCN1C)Oc1c(O)c(OC)cc3c1[C@@H](C2)N(C)CC3` [PCM-0214869], the inhibition at 10 µM under setting [1] is 0.8%.

Turning to `O=C(O)c1ccc(Cl)cc1O` [PCM-0214870], the inhibition at 10 µM under setting [1] is -10.9%.

Take `O=C(CBr)c1ccc(O)cc1` [PCM-0214871]: under setting [1], the inhibition at 10 µM was -28.8%.

In the case of `C[C@H]1[C@H](C)CC[C@]2(C(=O)O[C@@H]3O[C@H](CO[C@@H]4O[C@H](CO)[C@@H](O[C@@H]5O[C@@H](C)[C@H](O)[C@@H](O)[C@H]5O)[C@H](O)[C@H]4O)[C@@H](O)[C@H](O)[C@H]3O)CC[C@]3(C)C(=CC[C@@H]4[C@@]5(C)C[C@@H](O)[C@H](O)[C@@](C)(CO)[C@@H]5CC[C@]43C)[C@H]12` [PCM-0214874], the inhibition at 10 µM under setting [1] was -15.9%.

Consider `CC(C)=CCC[C@](C)(O)[C@H]1CC[C@]2(C)[C@@H]1[C@H](O)C[C@@H]1[C@@]3(C)CC[C@H](O)C(C)(C)[C@@H]3[C@@H](O)C[C@]12C` [PCM-0214875], for which the inhibition at 10 µM under setting [1] is 17.9%.

As for `COc1ccc2cc1Oc1ccc(cc1)C[C@H]1c3cc(c(OC)cc3CCN1C)Oc1c(O)c(OC)cc3c1[C@H](C2)N(C)CC3` [PCM-0214877], the inhibition at 10 µM under setting [1] came out at 27.2%.

For the compound `C=C1CC[C@H]2C(=C)CC[C@H]3C(=C)C(=O)O[C@@H]3[C@@H]12` [PCM-0214878], under setting [1], the inhibition at 10 µM came to 32.7%.

As for `COC(=O)c1ccc(O)c(OC)c1` [PCM-0214879], under setting [1], the inhibition at 10 µM was -12.5%.

Turning to `Oc1ccc2c(c1)OCO2` [PCM-0214880], under setting [1], the inhibition at 10 µM was -3.9%.

`CC1CNC(=O)NC1=O` (stereo not shown) [PCM-0214881]: under setting [1], the inhibition at 10 µM was -4.7%.

As for `Cc1ccc(C=C2C(=O)C3(C)CCC2C3(C)C)cc1` (stereo not shown) [PCM-0214882], the inhibition at 10 µM under setting [1] was found to be 5.4%.

As to `NC(=O)[C@@H]1CC[C@@H]2CN1C(=O)N2OS(=O)(=O)O` [PCM-0214883], the inhibition at 10 µM under setting [1] was -9.3%.

With `CO[C@@H]1[C@@H](O[C@@H]2O[C@H](C)[C@@H](O[C@H]3C[C@@](C)(O)[C@@H](O)[C@H](C)O3)[C@H](N(C)C)[C@H]2O)[C@@H](CC=O)C[C@@H](C)[C@@H](O)/C=C/C=C/C[C@@H](C)OC(=O)C[C@H]1O` [PCM-0214884], the inhibition at 10 µM under setting [1] worked out at 6.2%.

Consider `COC1=CC(=O)c2ccccc2C1=O` [PCM-0214886], for which the inhibition at 10 µM under setting [1] is 85.6%.

`O=C(O)C1=C(CSc2nnnn2CS(=O)(=O)O)CS[C@@H]2[C@H](NC(=O)[C@H](O)c3ccccc3)C(=O)N12` [PCM-0214888]: the inhibition at 10 µM under setting [1] worked out at 3.9%.

Turning to `CCOC(=O)C1=C(COCCN)NC(C)=C(C(=O)OC)[C@@H]1c1ccccc1Cl` [PCM-0214889], under setting [1], the inhibition at 10 µM was -11.7%.

For `CC(C)(C)C(O)/C(=C\c1ccc(Cl)cc1)n1cncn1` (stereo not shown) [PCM-0214890], the inhibition at 10 µM under setting [1] is -16.3%.

As for `O=c1[nH]c(=O)c2[nH]cnc2[nH]1` [PCM-0214891], the inhibition at 10 µM under setting [1] is -10.9%.

`CO/N=C1\C[C@]2(C[C@@H]3C[C@@H](C/C=C(\C)C[C@@H](C)/C=C/C=C4\CO[C@@H]5[C@H](O)C(C)=C[C@@H](C(=O)O3)[C@]45O)O2)O[C@H](/C(C)=C/C(C)C)[C@H]1C` [PCM-0214892]: under setting [1], the inhibition at 10 µM was 16.3%.

Regarding `C#C[C@]1(O)CC[C@H]2[C@@H]3CCc4cc(OC5CCCC5)ccc4[C@H]3CC[C@@]21C` [PCM-0214893], the inhibition at 10 µM under setting [1] was -8.6%.

Regarding `CC(C)N(CCCCOCC(=O)NS(C)(=O)=O)c1cnc(-c2ccccc2)c(-c2ccccc2)n1` [PCM-0214894], the inhibition at 10 µM under setting [1] was 11.7%.

As to `C=C[C@@H]1C[C@]1(NC(=O)[C@@H]1C[C@@H]2CN1C(=O)[C@H](C(C)(C)C)NC(=O)O[C@@H]1C[C@H]1CCCCCc1nc3ccc(OC)cc3nc1O2)C(=O)NS(=O)(=O)C1CC1` [PCM-0214895], the inhibition at 10 µM under setting [1] is -13.2%.

For `Cc1ccc(S(=O)(=O)Nc2cc(-c3ccc(C#N)s3)ccc2C)cc1` [PCM-0214896], the inhibition at 10 µM under setting [1] is -6.2%.

`N=C1CCCN1Cc1[nH]c(=O)[nH]c(=O)c1Cl` [PCM-0214897]: the inhibition at 10 µM under setting [1] is -10.1%.

Turning to `CC(=O)[C@@]1(O)CC[C@H]2[C@@H]3C[C@H](C)C4=CC(=O)CC[C@]4(C)[C@H]3CC[C@@]21C` [PCM-0214898], the inhibition at 10 µM under setting [1] was -7.8%.

For the compound `CO/N=C(\C(=O)N[C@@H]1C(=O)N2C(C(=O)[O-])=C(C[n+]3cccc4c3CCC4)CS[C@H]12)c1csc(N)n1` [PCM-0214899], the inhibition at 10 µM under setting [1] was -4.7%.

On to `Cn1nnnc1SCC1=C(C(=O)O)N2C(=O)[C@@H](NC(=O)[C@H](OC=O)c3ccccc3)[C@H]2SC1` [PCM-0214900], for which the inhibition at 10 µM under setting [1] worked out at 8.6%.

Turning to `O=C(Nc1ccc(O)cc1)c1ccccc1O` [PCM-0214902], the inhibition at 10 µM under setting [1] is -10.9%.

With `NC(=O)c1[nH]cnc1N` [PCM-0214903], the inhibition at 10 µM under setting [1] is -43.6%.

For `CO/N=C(\C(=O)N[C@@H]1C(=O)N2C(C(=O)O)=C(C[N+]3(C)CCCC3)CS[C@H]12)c1csc(N)n1` [PCM-0214905], under setting [1], the inhibition at 10 µM was -10.1%.

As to `CCCOc1ccc2c(c1)CC[C@@H]1[C@@H]2CC[C@]2(C)[C@@H](OC)CC[C@@H]12` [PCM-0214906], the inhibition at 10 µM under setting [1] is -24.1%.

In the case of `CC(=O)OCC(=O)[C@@]1(O)CC[C@H]2[C@@H]3CCC4=CC(=O)CC[C@]4(C)[C@@]3(F)[C@@H](O)C[C@@]21C` [PCM-0214907], the inhibition at 10 µM under setting [1] was -8.3%.

Take `Cc1ccccc1-n1c(CF)nc2ccc(N)cc2c1=O` [PCM-0214908]: the inhibition at 10 µM (read-out: BTK inhibition (%)) came out at 2.3%.

Regarding `CC(C(=O)O)C(=O)O` [PCM-0214910], the inhibition at 10 µM (read-out: BTK inhibition (%)) is -6.2%.

On to `CCCCCCC(=O)O[C@H]1CC[C@H]2[C@@H]3CCC4=CC(=O)CC[C@]4(C)[C@H]3CC[C@]12C` [PCM-0214913], for which the inhibition at 10 µM (read-out: BTK inhibition (%)) came out at 6.2%.

`CS(=O)(=O)c1cccc(C[C@H](NC(=O)c2c(Cl)cc3c(c2Cl)CCN(C(=O)c2ccc4ccoc4c2)C3)C(=O)O)c1` [PCM-0214914]: the inhibition at 10 µM under setting [1] is -4.7%.

Take `CCNC(=O)[C@@H]1CCCN1C(=O)[C@H](CCCN=C(N)N)NC(=O)[C@H](CC(C)C)NC(=O)[C@@H](CC(C)C)NC(=O)[C@H](Cc1ccc(O)cc1)NC(=O)[C@H](CO)NC(=O)[C@H](Cc1c[nH]c2ccccc12)NC(=O)[C@H](Cc1cnc[nH]1)NC(=O)[C@@H]1CCC(=O)N1` [PCM-0214915]: under setting [1], the inhibition at 10 µM was -11.7%.

In the case of `N#Cc1cc(-c2n[nH]c(-c3ccncc3)n2)ccn1` [PCM-0214916], under setting [1], the inhibition at 10 µM was -18.7%.

With `CSc1ccc(C(=O)/C=C/c2cc(C)c(OC(C)(C)C(=O)O)c(C)c2)cc1` [PCM-0214917], the inhibition at 10 µM under setting [1] was 7%.

For the compound `C[C@@H](c1nc(-c2ccc(C#N)cc2)cs1)[C@](O)(Cn1cncn1)c1cc(F)ccc1F` [PCM-0214918], the inhibition at 10 µM under setting [1] is -14%.

On to `Cn1cc(C(=O)[C@@H]2CCc3nc[nH]c3C2)c2ccccc21` [PCM-0214919], for which the inhibition at 10 µM under setting [1] was -3.1%.

In the case of `COC[C@H]1C[C@@H](c2ncc(-c3ccc4c(c3)COc3cc5c(ccc6[nH]c([C@@H]7CC[C@H](C)N7C(=O)[C@@H](NC(=O)OC)C(C)C)nc65)cc3-4)[nH]2)N(C(=O)[C@H](NC(=O)OC)c2ccccc2)C1` [PCM-0214920], the inhibition at 10 µM under setting [1] is 56%.

As to `OC(c1ccccc1)(c1ccccc1)C12CC[N+](CCOCc3ccccc3)(CC1)CC2` [PCM-0214921], the inhibition at 10 µM under setting [1] was -34.2%.

For the compound `CCOC(=O)c1cccc(N)c1` [PCM-0214922], the inhibition at 10 µM under setting [1] is -2.3%.

As to `COc1cccc(CCc2ccccc2OCC(CN(C)C)OC(=O)CCC(=O)O)c1` (stereo not shown) [PCM-0214923], the inhibition at 10 µM under setting [1] was -22.6%.

`O=C1CN(/N=C/C=C/c2ccc([N+](=O)[O-])o2)C(=O)N1` [PCM-0214924]: the inhibition at 10 µM under setting [1] is -7.8%.

Turning to `O=c1[nH]c2ccccc2n1CCN1CCN(c2cccc(C(F)(F)F)c2)CC1` [PCM-0214925], the inhibition at 10 µM under setting [1] is -34.2%.

Turning to `C=C1/C(=C\C=C2/CCC[C@]3(C)[C@@H]([C@H](C)/C=C/[C@@H](O)C4CC4)CC[C@@H]23)C[C@@H](O)C[C@@H]1O` [PCM-0214926], the inhibition at 10 µM under setting [1] was 1.6%.

As to `CCCNC[C@]1(O)[C@H](C)O[C@@H](O[C@H]2[C@H](C)[C@@H](O[C@@H]3O[C@H](C)C[C@H](N(C)C)[C@H]3O)[C@](C)(O)C[C@@H](C)CN[C@H](C)[C@@H](O)[C@](C)(O)[C@@H](CC)OC(=O)[C@@H]2C)C[C@@]1(C)OC` [PCM-0214927], under setting [1], the inhibition at 10 µM was -26.5%.

Consider `CC(C)(C)NC(=O)N[C@H](C(=O)N1C[C@H]2[C@@H]([C@H]1C(=O)NC(CC1CCC1)C(=O)C(N)=O)C2(C)C)C(C)(C)C` (stereo partly shown) [PCM-0214929], for which the inhibition at 10 µM under setting [1] was determined as 8.6%.

Regarding `CC(C)(C)c1cc(O)c(C(C)(C)C)cc1O` [PCM-0214931], the inhibition at 10 µM under setting [1] amounted to 26.5%.

As to `O=C(Cn1ccnc1[N+](=O)[O-])NCc1ccccc1` [PCM-0214934], the inhibition at 10 µM under setting [1] turned out to be 3.1%.

For `C=C[C@H]1CN2CC[C@H]1C[C@@H]2[C@@H](O)c1ccnc2ccccc12` [PCM-0214935], under setting [1], the inhibition at 10 µM was -17.1%.

For `COc1ccnc(C[S+]([O-])c2nc3ccc(-n4cccc4)cc3[nH]2)c1C` (stereo not shown) [PCM-0214937], the inhibition at 10 µM under setting [1] was found to be 25.7%.

On to `O=C(O)/C=C/c1ccc(O)cc1` [PCM-0214939], for which, under setting [1], the inhibition at 10 µM is -21.8%.

Turning to `NC(=S)c1ccncc1` [PCM-0214940], under setting [1], the inhibition at 10 µM is 7.8%.

With `CC(/C=C/C=C(\C)C(=O)O[C@@H]1O[C@H](CO[C@@H]2O[C@H](CO)[C@@H](O)[C@H](O)[C@H]2O)[C@@H](O)[C@H](O)[C@H]1O)=C\C=C\C=C(C)\C=C\C=C(/C)C(=O)O[C@@H]1O[C@H](CO[C@@H]2O[C@H](CO)[C@@H](O)[C@H](O)[C@H]2O)[C@@H](O)[C@H](O)[C@H]1O` [PCM-0214941], under setting [1], the inhibition at 10 µM is -8.6%.

Consider `COc1cc(/C=C/c2ccc(O)c(O)c2)cc(OC)c1` [PCM-0214943], for which the inhibition at 10 µM under setting [1] turned out to be 36.6%.

Take `O=C1C[C@@H](c2ccccc2)Oc2cc(O)cc(O)c21` [PCM-0214944]: the inhibition at 10 µM under setting [1] was determined as 11.7%.

Source of the values: PMC8041284, “Tunable Methacrylamides for Covalent Ligand Directed Release Chemistry” (Journal of the American Chemical Society, 2021).
